The supplement of paper PMC10307832

Key:
Experiment in all cases: relative viability (nuclei count vs DMSO), 5 days (fraction); higher = more cells survive
NCI-H838 = system: NCI-H838
Outline: (§1)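 The day after seeding in 1536-well plates, lung cancer cell lines were treated by pin tool with a single drug, or with a fixed anchor-drug dose together with five library-drug doses (not always all listed) in √10 steps. After 5 days, a combined fix-and-stain solution (final 0.05% Triton X-100, 1% formaldehyde, 1 ug/ml Hoechst) was added. Nuclei counted on 4× images gave relative viability as treated counts over vehicle counts, reported as the median of duplicate plates.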

ChaGo-K-1 = system: ChaGo-K-1
Outline: as §1

HOP-62 = system: HOP-62
Outline: as §1

SK-LU-1 = system: SK-LU-1
Outline: as §1

NCI-H2023 = system: NCI-H2023
Outline: as §1

NCI-H1793 = system: NCI-H1793
Outline: as §1

NCI-H1944 = system: NCI-H1944
Outline: as §1

NCI-H2405 = system: NCI-H2405
Outline: as §1

HCC-15 = system: HCC-15
Outline: as §1

NCI-H2228 = system: NCI-H2228
Outline: as §1

ABC-1 = system: ABC-1
Outline: as §1

HARA = system: HARA
Outline: as §1

NCI-H1993 = system: NCI-H1993
Outline: as §1

EMC-BAC-2 = system: EMC-BAC-2
Outline: as §1

NCI-H23 = system: NCI-H23
Outline: as §1

COR-L23 = system: COR-L23
Outline: as §1

NCI-H2126 = system: NCI-H2126
Outline: as §1

NCI-H358 = system: NCI-H358
Outline: as §1

NCI-H1395 = system: NCI-H1395
Outline: as §1

LC-2-ad = system: LC-2-ad
Outline: as §1

**Q.** Which results are given for `Cc1sc2c(c1C)C(c1ccc(Cl)cc1)=N[C@@H](CC(=O)OC(C)(C)C)c1nnc(C)n1-2` [JQ1] + CCNC(=O)c1noc(-c2cc(C(C)C)c(O)cc2O)c1-c1ccc(CN2CCOCC2)cc1 [Luminespib] (partner 0.01 µM)?
**A.** relative viability (NCI-H838; first compound 0.04 µM): 0.289; relative viability (NCI-H838; first compound 0.1265 µM): 0.288; relative viability (NCI-H838; first compound 0.4 µM): 0.222; relative viability (NCI-H838; first compound 1.265 µM): 0.161; relative viability (NCI-H838; first compound 4 µM): 0.144; relative viability (ChaGo-K-1; first compound 0.04 µM): 0.77; relative viability (ChaGo-K-1; first compound 0.1265 µM): 0.503; relative viability (ChaGo-K-1; first compound 0.4 µM): 0.452; relative viability (ChaGo-K-1; first compound 1.265 µM): 0.322; relative viability (ChaGo-K-1; first compound 4 µM): 0.285; relative viability (HOP-62; first compound 0.04 µM): 0.867; relative viability (HOP-62; first compound 0.1265 µM): 0.824; relative viability (HOP-62; first compound 0.4 µM): 0.477; relative viability (HOP-62; first compound 1.265 µM): 0.309; relative viability (HOP-62; first compound 4 µM): 0.128; relative viability (SK-LU-1; first compound 0.04 µM): 0.199; relative viability (SK-LU-1; first compound 0.1265 µM): 0.177; relative viability (SK-LU-1; first compound 0.4 µM): 0.171; relative viability (SK-LU-1; first compound 1.265 µM): 0.152; relative viability (SK-LU-1; first compound 4 µM): 0.175; relative viability (NCI-H2023; first compound 0.04 µM): 0.731; relative viability (NCI-H2023; first compound 0.1265 µM): 0.67; relative viability (NCI-H2023; first compound 0.4 µM): 0.358; relative viability (NCI-H2023; first compound 1.265 µM): 0.107; relative viability (NCI-H2023; first compound 4 µM): 0.146; relative viability (NCI-H1793; first compound 0.04 µM): 0.155; relative viability (NCI-H1793; first compound 0.1265 µM): 0.209; relative viability (NCI-H1793; first compound 0.4 µM): 0.197; relative viability (NCI-H1793; first compound 1.265 µM): 0.318; relative viability (NCI-H1793; first compound 4 µM): 0.253; relative viability (NCI-H1944; first compound 0.04 µM): 0.73; relative viability (NCI-H1944; first compound 0.1265 µM): 0.632; relative viability (NCI-H1944; first compound 0.4 µM): 0.451; relative viability (NCI-H1944; first compound 1.265 µM): 0.37; relative viability (NCI-H1944; first compound 4 µM): 0.353; relative viability (NCI-H2405; first compound 0.04 µM): 0.795; relative viability (NCI-H2405; first compound 0.1265 µM): 0.637; relative viability (NCI-H2405; first compound 0.4 µM): 0.963; relative viability (NCI-H2405; first compound 1.265 µM): 0.719; relative viability (NCI-H2405; first compound 4 µM): 0.655; relative viability (HCC-15; first compound 0.04 µM): 0.348; relative viability (HCC-15; first compound 0.4 µM): 0.45; relative viability (HCC-15; first compound 1.265 µM): 0.298; relative viability (HCC-15; first compound 4 µM): 0.216; relative viability (NCI-H2228; first compound 0.04 µM): 0.148; relative viability (NCI-H2228; first compound 0.1265 µM): 0.19; relative viability (NCI-H2228; first compound 0.4 µM): 0.0885; relative viability (NCI-H2228; first compound 1.265 µM): 0.112; relative viability (NCI-H2228; first compound 4 µM): 0.103; relative viability (ABC-1; first compound 0.04 µM): 0.612; relative viability (ABC-1; first compound 0.1265 µM): 0.286; relative viability (ABC-1; first compound 0.4 µM): 0.479; relative viability (ABC-1; first compound 1.265 µM): 0.192; relative viability (ABC-1; first compound 4 µM): 0.267; relative viability (HARA; first compound 0.04 µM): 0.65; relative viability (HARA; first compound 0.1265 µM): 0.508; relative viability (HARA; first compound 0.4 µM): 0.374; relative viability (HARA; first compound 1.265 µM): 0.168; relative viability (HARA; first compound 4 µM): 0.153; relative viability (NCI-H1993; first compound 0.04 µM): 1.03; relative viability (NCI-H1993; first compound 0.1265 µM): 0.789; relative viability (NCI-H1993; first compound 0.4 µM): 0.821; relative viability (NCI-H1993; first compound 1.265 µM): 0.637; relative viability (NCI-H1993; first compound 4 µM): 0.889; relative viability (EMC-BAC-2; first compound 0.04 µM): 1.16; relative viability (EMC-BAC-2; first compound 0.1265 µM): 1.09; relative viability (EMC-BAC-2; first compound 0.4 µM): 0.925; relative viability (EMC-BAC-2; first compound 1.265 µM): 0.472; relative viability (EMC-BAC-2; first compound 4 µM): 0.477; relative viability (NCI-H23; first compound 0.04 µM): 0.247; relative viability (NCI-H23; first compound 0.1265 µM): 0.185; relative viability (NCI-H23; first compound 0.4 µM): 0.179; relative viability (NCI-H23; first compound 1.265 µM): 0.166; relative viability (NCI-H23; first compound 4 µM): 0.173; relative viability (COR-L23; first compound 0.04 µM): 0.649; relative viability (COR-L23; first compound 0.1265 µM): 0.6; relative viability (COR-L23; first compound 0.4 µM): 0.504; relative viability (COR-L23; first compound 1.265 µM): 0.207; relative viability (COR-L23; first compound 4 µM): 0.114; relative viability (NCI-H2126; first compound 0.04 µM): 0.968; relative viability (NCI-H2126; first compound 0.1265 µM): 0.767; relative viability (NCI-H2126; first compound 0.4 µM): 0.977; relative viability (NCI-H2126; first compound 1.265 µM): 0.864; relative viability (NCI-H2126; first compound 4 µM): 0.659; relative viability (NCI-H358; first compound 0.04 µM): 0.305; relative viability (NCI-H358; first compound 0.1265 µM): 0.398; relative viability (NCI-H358; first compound 0.4 µM): 0.401; relative viability (NCI-H358; first compound 1.265 µM): 0.385; relative viability (NCI-H358; first compound 4 µM): 0.27; relative viability (NCI-H1395; first compound 0.04 µM): 0.761; relative viability (NCI-H1395; first compound 0.1265 µM): 0.681; relative viability (NCI-H1395; first compound 0.4 µM): 0.808; relative viability (NCI-H1395; first compound 1.265 µM): 0.399; relative viability (NCI-H1395; first compound 4 µM): 0.458; relative viability (LC-2-ad; first compound 0.04 µM): 0.892; relative viability (LC-2-ad; first compound 0.1265 µM): 0.58; relative viability (LC-2-ad; first compound 0.4 µM): 0.576; relative viability (LC-2-ad; first compound 1.265 µM): 0.395; relative viability (LC-2-ad; first compound 4 µM): 0.331
